We go through 33 molecules from patent US8536332B2, “Modulating signal transduction pathways with substituted pyridol [2,3-b] pyrazines” (Aeterna Zentaris GmbH, priority 2007, dated 2013).

Data set [1] concerns MDA-MB468. Description: XTT assay, anti-proliferative activity, MDA-MB468. Type of data set: cell-based. The following applies: Homo sapiens, MDA-MB-468; 45 h incubation. On the procedure: (§1) The principle of this test is based on the intracellular reduction of the tetrazolium dye XTT (sodium 3′-[1-(phenylaminocarbonyl)-3,4-tetrazolium]bis(4-methoxy-6-nitro)benzenesulphonic acid, Sigma) to a formazan dye by mitochondrial dehydrogenases. The dye is formed only by metabolically active cells. Its photometrically measurable intensity is a quantitative indicator for the presence of living cells. The reduction in the dye formation as a result of incubation of the cells with substances serves as a parameter for the anti-proliferative activity.
(§2) The tumour cell lines (ATCC) were seeded in 96-well microtitre plates in a defined cell count (5000 cells/well for Hct116; 10000 cells/well for MDA MB468), and incubated overnight at 37° C., 5% CO2 and 95% air humidity. The test substances were made up as stock solutions (10 mM) in DMSO. […] The cell plates were then incubated for 45 h at 37° C., 5% CO2 and 95% air humidity.
(§3) For the detection reaction, the XTT substrate was mixed with PMS (N-methyldibenzopyrazine methylsulphate, Sigma) and added to the cells, to result in a final concentration of 325 μg of XTT/ml and 2.5 μg PMS/ml. The mixture was then incubated for 3 h at 37° C., 95% air humidity. Subsequently the formazan salt formed by cellular dehydrogenases was quantified at an absorption of 490 nm.
(§4) The evaluation of the % inhibition values was done by means of the following formula from the values for the optical densities measured in each case at 490 nm:
(§5) The controls were determined 8 fold, the substance samples 2 fold. 0% control contained no cells and the 100% control contained no test substance. The EC50 values were determined with GraphPadPrism.

The test system of data set [2] is Hct116. Description: XTT assay, anti-proliferative activity, Hct116. Type of data set: cell-based. The following applies: Homo sapiens, HCT-116; 45 h incubation. Here is the method: as §1, §2, §3, §4, §5

Each structure is given as a SMILES string.

With `CCNC(=O)Nc1ccc2ncc(-c3cccs3)nc2n1` [Compound 152, 1-Ethyl-3-(3-thiophen-2-yl-pyrido[2,3-b]pyrazin-6-yl)-urea], the melting point lay in the range of 227 to 228 °C. This molecule had an EC50 in data set [1] of less than 10 µM. In data set [2], this molecule yielded an EC50 of less than 10 µM.
`CCNC(=S)Nc1ccc2ncc(Nc3ccccc3)nc2n1` [Compound 148, 1-Ethyl-3-(3-phenylamino-pyrido[2,3-b]pyrazin-6-yl)-thiourea] registered a melting point of 285 °C. The molecule also showed a half-maximal effective concentration (EC50) in data set [1] of less than 5 µM. In addition, the concentration for a half-maximal effect (EC50) in data set [2] was less than 10 µM.
The like results for `CCNC(=S)Nc1ccc2ncc(Nc3ccc(O)c(OC)c3)nc2n1` [Compound 150, 1-Ethyl-3-[3-(4-hydroxy-3-methoxy-phenylamino)-pyrido[2,3-b]pyrazin-6-yl]-thiourea] were, in that order, 269 °C, less than 5 µM and less than 5 µM.
Turning to `CCNC(=S)Nc1ccc2ncc(-c3cnn(C)c3)nc2n1` [Compound 113, 1-Ethyl-3-[3-(1-methyl-1H-pyrazol-4-yl)-pyrido[2,3-b]pyrazin-6-yl]-thiourea], the melting point worked out at 242 °C. The same molecule came in with a concentration giving a half-maximal response (EC50) in data set [1] of less than 5 µM. Besides, the EC50 in data set [2] was less than 5 µM.
`CCNC(=S)Nc1ccc2ncc(-c3ccc(N)c(OC)c3)nc2n1` [Compound 140, 1-[3-(4-Amino-3-methoxy-phenyl)-pyrido[2,3-b]pyrazin-6-yl]-3-ethyl-thiourea]: the EC50 in data set [1] and in data set [2] was less than 5 µM throughout.
`CCNC(=S)Nc1ccc2ncc(-c3cc(Cl)c(O)c(Cl)c3)nc2n1` [Compound 138, 1-[3-(3,5-Dichloro-4-hydroxy-phenyl)-pyrido[2,3-b]pyrazin-6-yl]-3-ethyl-thiourea]: the EC50 in data set [1] and in data set [2] was less than 10 µM throughout.
Turning to `CCNC(=O)Nc1ccc2ncc(Nc3cccc(OC)c3)nc2n1` [Compound 89, 1-Ethyl-3-[3-(3-methoxy-phenylamino)-pyrido[2,3-b]pyrazin-6-yl]-urea], the melting point lay in the range of 216 to 219 °C. Moreover, the EC50 in data set [1] is less than 5 µM. In data set [2], this molecule yielded a concentration for a half-maximal effect (EC50) of less than 5 µM.
In the case of `COc1cc(Nc2cnc3ccc(NC(=S)NC4CCCCCCC4)nc3n2)cc(OC)c1OC` [Compound 691, 1-Cyclooctyl-3-[3-(3,4,5-trimethoxy-phenylamino)-pyrido[2,3-b]pyrazin-6-yl]-thiourea], the melting point came out at 250 °C.
Consider `COc1cc(-c2ccc3ncc(NC(=O)Nc4cccnc4)nc3n2)ccc1O` [Compound 611, 1-[6-(4-Hydroxy-3-methoxy-phenyl)-pyrido[2,3-b]pyrazin-3-yl]-3-pyridin-3-yl-urea], for which the melting point fell in the range of 245 to 248 °C.
The molecule `COc1cc(-c2ccc3ncc(NC(=O)Nc4ccc(N(C)C)cc4)nc3n2)ccc1O` [Compound 602, 1-(4-Dimethylamino-phenyl)-3-[6-(4-hydroxy-3-methoxy-phenyl)-pyrido[2,3-b]pyrazin-3-yl]-urea] gave a melting point of 287 to 290 °C.
In turn, `CCNC(=O)Nc1ccc2ncc(-c3ccc(-c4ccccc4)cc3)nc2n1` [Compound 123, 1-(3-Biphenyl-4-yl-pyrido[2,3-b]pyrazin-6-yl)-3-ethyl-urea] displayed a melting point of 280 °C.
On the same count and under the same terms, the result for `COc1cc(-c2ccc3ncc(NC(=O)NC4CCC(C)CC4)nc3n2)ccc1O` (stereo not drawn) [Compound 612, 1-[6-(4-Hydroxy-3-methoxy-phenyl)-pyrido[2,3-b]pyrazin-3-yl]-3-(4-methyl-cyclohexyl)-urea] reads 272 to 273 °C; that for `CCNC(=O)Nc1ccc2ncc(-c3ccc(Cl)cc3)nc2n1` [Compound 122, 1-[3-(4-Chloro-phenyl)-pyrido[2,3-b]pyrazin-6-yl]-3-ethyl-urea], 244 to 247 °C; that for `CCNC(=O)Nc1ccc2ncc(Nc3ccc(O)c(C)c3)nc2n1` [Compound 86, 1-Ethyl-3-[3-(4-hydroxy-3-methyl-phenylamino)-pyrido[2,3-b]pyrazin-6-yl]-urea], 277 to 280 °C.
The same measure, in the same setting: under `CCNC(=S)Nc1ccc2ncc(Nc3ccc(C)cc3C)nc2n1` [Compound 399, 1-[3-(2,4-Dimethyl-phenylamino)-pyrido[2,3-b]pyrazin-6-yl]-3-ethyl-thiourea] stands 215 °C; under `COc1ccc(-c2ccc3ncc(NC(=O)Nc4ccc(N(C)C)cc4)nc3n2)cc1OC` [Compound 569, 1-[6-(3,4-Dimethoxy-phenyl)-pyrido[2,3-b]pyrazin-3-yl]-3-(4-dimethylamino-phenyl)-urea], 262 to 263 °C; under `Cc1noc(C)c1NC(=O)Nc1cnc2ccc(-c3cc(Cl)c(O)c(Cl)c3)nc2n1` [Compound 562, 1-[6-(3,5-Dichloro-4-hydroxy-phenyl)-pyrido[2,3-b]pyrazin-3-yl]-3-(3,5-dimethyl-isoxazol-4-yl)-urea], 257 to 260 °C.
On to `COc1cc(-c2ccc3ncc(NC(=O)N(C)c4ccc(C(C)C)cc4)nc3n2)ccc1O` [Compound 635, 3-[6-(4-Hydroxy-3-methoxy-phenyl)-pyrido[2,3-b]pyrazin-3-yl]-1-(4-isopropyl-phenyl)-1-methyl-urea], for which the melting point lay in the range of 226 to 228 °C.
On the same count and under the same terms, the result for `O=C(NCCc1ccccc1)Nc1cnc2ccc(-c3cc(Cl)c(O)c(Cl)c3)nc2n1` [Compound 564, 1-[6-(3,5-Dichloro-4-hydroxy-phenyl)-pyrido[2,3-b]pyrazin-3-yl]-3-phenethyl-urea] reads 280 to 282 °C; that for `Cc1cc(-c2ccc3ncc(NC(=O)NCCc4ccccc4)nc3n2)cc(C)c1O` [Compound 588, 1-[6-(4-Hydroxy-3,5-dimethyl-phenyl)-pyrido[2,3-b]pyrazin-3-yl]-3-phenethyl-urea], 267 to 269 °C; that for `CCNC(=S)Nc1cnc2ccc(Nc3ccc(C)cc3)nc2n1` [Compound 25, 1-Ethyl-3-(6-p-tolylamino-pyrido[2,3-b]pyrazin-3-yl)-thiourea], 195 °C.
`CCCNC(=O)Nc1cnc2ccc(-c3cc(Cl)c(O)c(Cl)c3)nc2n1` [Compound 551, 1-[6-(3,5-Dichloro-4-hydroxy-phenyl)-pyrido[2,3-b]pyrazin-3-yl]-3-propyl-urea] displayed a melting point of 265 to 268 °C.
The same measure, in the same setting: under `CCNC(=O)Nc1ccc2ncc(-c3ccc(C)c(C)c3)nc2n1` [Compound 142, 1-[3-(3,4-Dimethyl-phenyl)-pyrido[2,3-b]pyrazin-6-yl]-3-ethyl-urea] stands 247 to 249 °C; under `CCNC(=O)Nc1ccc2ncc(-c3cccc(N(C)C)c3)nc2n1` [Compound 144, 1-[3-(3-Dimethylamino-phenyl)-pyrido[2,3-b]pyrazin-6-yl]-3-ethyl-urea], 240 to 244 °C; under `CCNC(=O)Nc1ccc2ncc(Nc3cccc(C)c3C)nc2n1` [Compound 378, 1-[3-(2,3-Dimethyl-phenylamino)-pyrido[2,3-b]pyrazin-6-yl]-3-ethyl-urea], 225 °C.
With `COc1cc(-c2ccc3ncc(NC(=S)NC4CCCC4)nc3n2)ccc1O` [Compound 519, 1-Cyclopentyl-3-[6-(4-hydroxy-3-methoxy-phenyl)-pyrido[2,3-b]pyrazin-3-yl]-thiourea], the melting point was in the range of 233 to 235 °C.
Same read-out and setting: the result for `CCNC(=O)Nc1ccc2ncc(-c3cc(C)cc(Br)c3)nc2n1` [Compound 94, 1-[3-(3-Bromo-5-methyl-phenyl)-pyrido[2,3-b]pyrazin-6-yl]-3-ethyl-urea] reads 270 to 274 °C; that for `COc1cc(Nc2cnc3ccc(NC(=S)NC4CC4)nc3n2)cc(OC)c1OC` [Compound 707, 1-Cyclopropyl-3-[3-(3,4,5-trimethoxy-phenylamino)-pyrido[2,3-b]pyrazin-6-yl]-thiourea], 248 °C.
On the same count and under the same terms, under `COc1cc(-c2ccc3ncc(NC(=O)Nc4ccc([N+](=O)[O-])cc4)nc3n2)ccc1O` [Compound 616, 1-[6-(4-Hydroxy-3-methoxy-phenyl)-pyrido[2,3-b]pyrazin-3-yl]-3-(4-nitro-phenyl)-urea] stands 247 to 250 °C; under `CCNC(=O)Nc1cnc2ccc(-c3ccc(O)c(Br)c3)nc2n1` [Compound 641, 1-[6-(3-Bromo-4-hydroxy-phenyl)-pyrido[2,3-b]pyrazin-3-yl]-3-ethyl-urea], 291 °C.
Still for that read-out and setting: under `O=C(Nc1ccc(N2C(=O)C=CC2=O)cc1)Nc1cnc2ccc(-c3cc(Cl)c(O)c(Cl)c3)nc2n1` [Compound 565, 1-[6-(3,5-Dichloro-4-hydroxy-phenyl)-pyrido[2,3-b]pyrazin-3-yl]-3-[4-(2,5-dioxo-2,5-dihydro-pyrrol-1-yl)-phenyl]-urea] stands greater than 300 °C; under `COc1cc(Nc2cnc3ccc(NC(=S)NCCN4CCCCC4)nc3n2)cc(OC)c1OC` [Compound 700, 1-(2-Piperidin-1-yl-ethyl)-3-[3-(3,4,5-trimethoxy-phenylamino)-pyrido[2,3-b]pyrazin-6-yl]-thiourea], 206 °C.
Turning to `COc1cc(-c2ccc3ncc(NC(=O)NC(C)(C)C)nc3n2)ccc1O` [Compound 28, 1-tert-Butyl-3-[6-(4-hydroxy-3-methoxy-phenyl)-pyrido[2,3-b]pyrazin-3-yl]-urea], the melting point fell in the range of 219 to 222 °C.
